“And” between values parts separate entries of the source, which are not always exact repeats. Identical values can stand only once.
Key:
DRB4*0101 = DRB4*0101 (Homo sapiens, UniProt P01903+P13762, G164S); experiment: biochemical
DPB1*0401 = DPB1*0401 (Homo sapiens, UniProt P04440+P20036); experiment: biochemical
[1] = system: PBMC from allergic donors; experiment: Dual ELISPOT, total IL-5 and IFN-γ response (SFC); format: cell-based, human; details: for Response (SFC/10^6) Total: sum of IFNg and IL-5, each table line is one donor
Procedure: (§1) Spots were counted by computer-assisted image analysis (Zeiss, KS-ELISPOT reader, Munich, Germany).
(§2) Each assay was performed in triplicate. The level of statistical significance was determined with a Student's t-test using the mean of triplicate values of the response against relevant pools or individual peptides versus the response against the DMSO control.

HLA-DP = experiment: HLA locus restriction, mAb inhibition of ELISPOT response; format: cell-based, human; details: count; ≥50% inhibition by anti-HLA-DP mAb B7/21; 0/0/0 = locus could not be determined
Procedure: (§3) To determine the HLA locus restriction of identified epitopes, mAb inhibition assays were performed as described previously (11, 37). Preliminary determinations were made on control T cell clones of known specificity to determine optimal antibody doses leading to complete inhibition of the specific clones, and not associated with inhibition of clones known to be restricted by a different HLA allele or locus. This antibody concentration was then utilized in experiments where a dose response of antigenic peptide was tested in the presence or absence of the specific antibodies. Experimental determinations were performed utilizing ELISPOT assays specific for the particular lymphokine utilized to originally identify the particular epitope mapped.
(§4) For each antigenic region/donor combination short-term T cell lines were derived by extract stimulation of triplicate cultures of 2-3 million cells. IL-2 was added 5-8 days following stimulation. After 14 days of stimulation with the corresponding allergen extract (2-50 μg/ml), the HLA locus that restricted the response to the specific lymphokine was determined by measuring the capacity of mAbs specific for HLA-DR, DP or DQ to inhibit (block) the response. For this, PBMCs were incubated with 10 μg/ml of mAbs (Strategic Biosolutions, Windham, Me.) against HLA-DR (LB3.1), DP (B7/21) or DQ (SVPL3) 30 minutes prior to addition of 10 μg/ml of peptide. Cytokine production induced by positive peptides was then measured in ELISPOT assays as described above. The pan MHC class I Ab (W6/32) was used as a control. The decrease (inhibition) in cytokine production in the presence of an HLA locus specific mAb, relative to production in the absence of mAb, was determined.

HLA-DR = experiment: as above; format: cell-based, human; details: count; ≥50% inhibition by anti-HLA-DR mAb LB3.1; 0/0/0 = locus could not be determined
Procedure: as §3, §4

HLA-DQ = experiment: as above; format: cell-based, human; details: count; ≥50% inhibition by anti-HLA-DQ mAb SVPL3; 0/0/0 = locus could not be determined
Procedure: as §3, §4

DPA1*0201/DPB1*0101 = DPA1*0201/DPB1*0101 (Homo sapiens, UniProt P04440+P20036, F191V/F38Y/F64Y/G113D/G114E/K142R/L158P/L37V/M105V/M116V/M62Q/P115A/Q81R/R125K/R223Q/T114A/T199I/T259P); experiment: biochemical
DPA1*0201/DPB1*0501 = DPA1*0201/DPB1*0501 (Homo sapiens, UniProt P04440+P20036, A65V/A84E/F191V/F64L/G113D/G114E/K142R/L158P/M116V/M62Q/P115A/Q81R/R125K/T114A/T199I/T259P/V234M); experiment: biochemical
DRB3*0202 = DRB3*0202 (Homo sapiens, UniProt P01903+P79483, A212P/D57E/F66Y/L67A/R103Q/R218S/R40L/S89Y/T80R/V86D/Y55F/Y59H); experiment: biochemical
DPA1*0103/DPB1*0201 = DPA1*0103/DPB1*0201 (Homo sapiens, UniProt P04440+P20036, A65V/A84D/A85E/K98E); experiment: biochemical
DRB3*0101 = DRB3*0101 (Homo sapiens, UniProt P01903+P79483); experiment: biochemical
[2] = system: PBMC from allergic donors; experiment: IFN-γ ELISPOT with extract-stimulated short-term lines; format: cell-based, human; details: positive donor/peptide response; each table line is one donor
Procedure: as §1, §2

[3] = system: PBMC from allergic donors; experiment: IL-5 ELISPOT with extract-stimulated short-term lines; format: cell-based, human; details: positive donor/peptide response; each table line is one donor
Procedure: as §1, §2

DRB3*0202, sequence (P01903 26-254 limits assumed): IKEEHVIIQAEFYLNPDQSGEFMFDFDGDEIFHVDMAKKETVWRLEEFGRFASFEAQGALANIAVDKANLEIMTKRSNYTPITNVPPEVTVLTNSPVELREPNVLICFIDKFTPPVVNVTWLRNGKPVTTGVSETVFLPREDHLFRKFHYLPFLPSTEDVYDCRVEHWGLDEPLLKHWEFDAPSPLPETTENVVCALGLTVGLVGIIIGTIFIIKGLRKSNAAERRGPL
DRB3*0202, sequence (P79483 30-266 R40L/Y55F/D57E/Y59H/F66Y/L67A/T80R/V86D/S89Y/R103Q/A212P/R218S limits assumed): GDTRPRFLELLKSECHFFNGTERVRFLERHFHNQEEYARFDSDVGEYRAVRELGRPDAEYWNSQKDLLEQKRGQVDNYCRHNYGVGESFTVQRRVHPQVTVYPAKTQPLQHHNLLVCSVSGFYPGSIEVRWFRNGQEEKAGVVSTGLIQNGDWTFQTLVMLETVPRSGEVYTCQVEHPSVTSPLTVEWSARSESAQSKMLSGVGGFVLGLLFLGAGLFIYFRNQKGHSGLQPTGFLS
DPA1*0201/DPB1*0501, sequence (P20036 29-260 M62Q/Q81R/T114A/K142R/L158P/F191V/T259P, other chains not shown): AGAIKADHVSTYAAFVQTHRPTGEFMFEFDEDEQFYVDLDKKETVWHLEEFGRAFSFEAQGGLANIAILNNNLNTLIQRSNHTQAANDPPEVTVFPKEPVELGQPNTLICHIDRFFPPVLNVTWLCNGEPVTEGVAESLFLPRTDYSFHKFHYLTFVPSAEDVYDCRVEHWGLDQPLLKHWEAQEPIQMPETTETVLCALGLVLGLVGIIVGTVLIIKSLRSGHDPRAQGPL
DPA1*0201/DPB1*0101, sequence (P20036 29-260 M62Q/Q81R/T114A/K142R/L158P/F191V, other chains not shown): as the sequence (P20036 29-260 M62Q/Q81R/T114A/K142R/L158P/F191V/T259P, other chains not shown) above, with P231T counted along it

`CC[C@H](C)[C@H](N)C(=O)N[C@@H](C)C(=O)N[C@@H](CO)C(=O)N[C@@H](CC(C)C)C(=O)N[C@@H](Cc1ccccc1)C(=O)N[C@@H](C)C(=O)N[C@@H](C)C(=O)N[C@@H](C)C(=O)NCC(=O)N[C@@H](CC(C)C)C(=O)N[C@@H](C)C(=O)N[C@@H](C)C(=O)N[C@@H](C)C(=O)N[C@@H](C)C(=O)N1CCC[C@H]1C(=O)O` [3324.0015] gave an IC50 (DRB4*0101) of 0.301 µM and an IC50 (DPB1*0401) of 28 µM.

For “Bet v 1 (111-125): epitope region of allergen Bet v 1, Birch”, the Donors responding ([1]; number of allergic donors recognizing the epitope region) was 3, the “% responding” value ([1]; percent of tested allergic donors responding) was 30.0% and the “Total SFC” value ([1]; total response to the epitope region) was 1132 SFC. For the same compound, the “Region restriction(s) DP” value (HLA-DP) was 0, the “Region restriction(s) DR” value (HLA-DR) was 2 and the “Region restriction(s) DQ” value (HLA-DQ) was 0.

For `CC[C@H](C)[C@H](NC(=O)[C@H](Cc1ccc(O)cc1)NC(=O)[C@H](C)NC(=O)[C@H](CC(=O)O)NC(=O)[C@H](C)NC(=O)[C@@H](N)C(C)C)C(=O)N[C@H](C(=O)N[C@@H](CC(C)C)C(=O)N[C@H](C(=O)N[C@H](C(=O)N[C@@H](CC(C)C)C(=O)N1CCC[C@H]1C(=O)N[C@@H](CCCCN)C(=O)N[C@@H](CO)C(=O)N[C@@H](CO)C(=O)O)[C@@H](C)O)C(C)C)[C@@H](C)O` [3324.0016], the IC50 (DPA1*0201/DPB1*0101) was 0.04 µM, the IC50 (DPB1*0401) was 2.5 µM and the IC50 (DPA1*0201/DPB1*0501) was 0.0071 µM.

For `CC[C@H](C)[C@H](NC(=O)[C@H](CC(=O)O)NC(=O)[C@H](CC(=O)O)NC(=O)[C@H](CO)NC(=O)[C@@H](NC(=O)[C@@H](N)CCCCN)C(C)C)C(=O)N[C@H](C(=O)N[C@@H](Cc1ccc(O)cc1)C(=O)N[C@H](C(=O)N[C@@H](C)C(=O)N[C@H](C(=O)N[C@@H](C)C(=O)N[C@H](C(=O)N[C@@H](CC(C)C)C(=O)N1CCC[C@H]1C(=O)O)[C@@H](C)O)[C@@H](C)O)C(C)C)[C@@H](C)O` [3324.0013], the IC50 (DRB3*0202) was 5.27 µM, the IC50 (DPA1*0103/DPB1*0201) was 18 µM and the IC50 (DPB1*0401) was 1.61 µM. It also gave an IC50 (DRB3*0101) of 6 µM.

Work on `CC[C@H](C)[C@H](N)C(=O)N[C@H](C(=O)N[C@@H](Cc1ccc(O)cc1)C(=O)N[C@H](C(=O)N[C@@H](C)C(=O)N[C@H](C(=O)N[C@@H](C)C(=O)N[C@H](C(=O)N[C@@H](CC(C)C)C(=O)N1CCC[C@H]1C(=O)N[C@@H](CC(N)=O)C(=O)N[C@@H](Cc1ccc(O)cc1)C(=O)N[C@@H](CS)C(=O)N[C@@H](CCCNC(=N)N)C(=O)N[C@@H](C)C(=O)O)[C@@H](C)O)[C@@H](C)O)C(C)C)[C@@H](C)O` [3324.0014] yielded an IC50 (DPB1*0401) of 2.99 µM.

`CC(C)C[C@H](NC(=O)CNC(=O)[C@H](C)NC(=O)[C@H](C)NC(=O)[C@H](C)N)C(=O)N[C@@H](C)C(=O)N[C@@H](C)C(=O)N[C@@H](C)C(=O)N[C@@H](C)C(=O)N1CCC[C@H]1C(=O)N[C@@H](CC(C)C)C(=O)N[C@@H](CCC(=O)O)C(=O)N[C@@H](CO)C(=O)N[C@@H](CCCNC(=N)N)C(=O)N[C@@H](CCC(N)=O)C(=O)O` [3324.0017] showed an IC50 (DRB4*0101) of 0.028 µM.

For `CC[C@H](C)[C@H](NC(=O)[C@H](Cc1ccc(O)cc1)NC(=O)[C@H](C)NC(=O)[C@H](CC(=O)O)NC(=O)[C@H](C)NC(=O)[C@@H](NC(=O)CNC(=O)[C@@H](N)CCC(N)=O)C(C)C)C(=O)N[C@H](C(=O)N[C@@H](CC(C)C)C(=O)N[C@H](C(=O)N[C@H](C(=O)N[C@@H](CC(C)C)C(=O)N1CCC[C@H]1C(=O)N[C@@H](CCCCN)C(=O)O)[C@@H](C)O)C(C)C)[C@@H](C)O` [3324.0011], the IC50 (DPB1*0401) was 2.01 µM.

With `CC[C@H](C)[C@H](NC(=O)[C@H](Cc1ccccc1)NC(=O)[C@H](CCCCN)NC(=O)[C@H](Cc1ccc(O)cc1)NC(=O)[C@@H](NC(=O)[C@H](CCC(=O)O)NC(=O)[C@H](Cc1ccc(O)cc1)NC(=O)[C@H](C)NC(=O)CN)[C@@H](C)O)C(=O)N1CCC[C@H]1C(=O)N[C@@H](CO)C(=O)N[C@@H](CC(C)C)C(=O)N[C@@H](CCC(=O)O)C(=O)N[C@@H](C)C(=O)N[C@@H](C)C(=O)O` [3324.1433] the “Response (SFC/10^6) Total” value [1] was 247 SFC/10^6 and 208 SFC/10^6 and 153 SFC/10^6, the “Response (SFC/10^6) IFNg” value [2] was 208 SFC/10^6 and 153 SFC/10^6 and the “Response (SFC/10^6) IL-5” value [3] was 247 SFC/10^6.

In the case of `CC[C@H](C)[C@H](NC(=O)[C@H](Cc1ccccc1)NC(=O)[C@H](C)NC(=O)[C@@H](N)CC(=O)O)C(=O)N[C@@H](C)C(=O)N[C@@H](C)C(=O)N[C@@H](CC(C)C)C(=O)N[C@H](C(=O)N[C@@H](CCC(=O)O)C(=O)N[C@@H](C)C(=O)N[C@@H](CC(C)C)C(=O)N[C@@H](CCCNC(=N)N)C(=O)N[C@H](C(=O)N[C@H](C(=O)N[C@@H](C)C(=O)O)[C@@H](C)CC)C(C)C)[C@@H](C)O` [3324.1432], the “Response (SFC/10^6) Total” value [1] is reported as 713 SFC/10^6 and 540 SFC/10^6, the “Response (SFC/10^6) IFNg” value [2] is reported as 713 SFC/10^6 and the “Response (SFC/10^6) IL-5” value [3] is reported as 540 SFC/10^6.
